Test results as given in US8258130B2 (Sanofi, priority 2007, dated 2012).

What follows are compounds tested against human h-PGDS (Homo sapiens, UniProt O60760) (assay: Enzyme Immunoassay (EIA) method, inhibition of hematopoietic PGD2 synthase). Settings: EIA assay, PGD2 formed from PGH2 by human h-PGDS.
Format: biochemical
Protocol: Assay 2: Enzyme Immunoassay (EIA) Method
• a. Preparation of 0.1M K2HPO4/KH2PO4 buffer (pH 7.4) • Prepare 0.1 M KH2PO4 from 1M KH2PO4 (Sigma, Cat# P-8709) • Prepare 0.1 M K2HPO4 from powder of K2HPO4 (Fisher, BP363-500) • Mix 0.1 M K2HPO4 with 0.1 M KH2PO4 to adjust pH to 7.4. • b. Preparation of 0.5% γ-globulin • Add 0.1 g of γ-globulin (Sigma, Cat# G-5009) to 20 mL 0.1 M K2HPO4/KH2PO4 buffer (pH 7.4) and make 1-mL/vial aliquots and store in −80° C. • c. Preparation of 100 mM GSH • Add 307 mg of GSH (Sigma, Cat# G-6529) to 10 mL 0.1 M K2HPO4/KH2PO4 buffer (pH 7.4) and store at −80° C. • d. Preparation of Reaction buffer: • 198 mL of 0.1M K2HPO4/KH2PO4 buffer (pH 7.4) • 2 mM GSH—Prepared from 100 mM GSH • 0.4 g Glycerol • 2 mL of 0.5% γ-globulin • Add 0.4 g of glycerol and 2 mL of 0.5% γ-globulin to 198 mL of 0.1 M K2HPO4/KH2PO4 • buffer (pH7.4). • Add 0.4 mL of 100 mM GSH to 19.6 mL reaction buffer before the assay (enough for two 96-well plates). • e. Preparation of FeCl2/citric acid stopping solution: (8 mg/mL FeCl2, 0.1 M citric acid) • Add 40 mg fresh FeCl2 (IGN, Cat# 158046) to 5 mL 0.1 M citric acid (Sigma, Cat# C0759). • f. Preparation of MOX reagent: • 10% EtOH—Add 1 mL of EtOH to 9 mL of ultra pure H2O • Dissolve 0.1 g of methoxyl amine (Cayman, Cat# 400036/) in 10% EtOH (10 mL). • Add 0.82 g of sodium acetate (Cayman, Cat#400037) to MOX solution and dissolve. II. Materials and Method • Dimethylsulfoxide (DMSO; Sigma; Cat# D2650) • Prostaglandin D2-MOX express EIA kit (Caymen Chemical, Catalog No. 500151)
Before the assay, cool down 10 mL of acetone in polypropylene tubes and empty 96 well plates in ice. All the procedures except compound dilution are performed on ice.
• 1. Dilute compound in DMSO
• 2. Dilute 2 μL of each above concentration of compound to 38 μL of reaction buffer in 96-well plates and mix. IV. Enzyme and Substrate Solution Preparation • 1 Preparation of 0.39 ng/μL enzyme solution (0.35 ng/μL at final after compound addition). • Mix 4 μL of 4 mg/mL human h-PGDS with 396 μL of reaction buffer (to give enzyme concentration 40 μg/mL). Add 46.8 μL of 40 μg/mL h-PGDS to 4.753 mL of reaction buffer to give a total volume of 4.8 mL • 2. Preparation of Substrate Solution (PGH2): Add 0.375 mL of 0.1 mg/mL of PGH2 to 1.625 mL acetone. V. Enzyme Reaction: • 1. Add 60 μL of enzyme solution to compound well and positive control (without compound) in U-bottom polypropylene plate on ice. • 2. Add 60 μL of reaction buffer and 6.6 μL of 5% DMSO in reaction buffer into negative control wells in the plate. • 3. Add 6.6 μL of diluted compound in reaction buffer to the compound wells and mix. • 4. Add 6.6 μL of 5% DMSO in reaction buffer to the positive control well. • 5. Incubate the plate in ice for at least 30 min. • 6. Add 20 μL of substrate (PGH2) solution to compound, negative and positive control wells in the U-bottom 96 well plate on ice. • 7. Dry the plate in cold room for about 25-28 min. • 8. Pipette 45 μL of enzyme solution (above) into 96-wells with dried PGH2 and mix 3 times. Incubate on the ice for 1 min. • 9. Add 45 μL of FeCl2 solution into each wells and mix. • 10. Add 90 μL of MOX solution and mix. • 11. Incubate for 30 min at 60° C. • 12. Dilute the samples 2500× with EIA buffer. VI. EIA Assay • Perform the assay according to the procedure in EIA kit provided by Cayman. Total PGD2 levels (pg/mL) were determined in the samples by EIA kits (Caymen Chemical, Catalog No. 500151) Calculate Amount of PGD2 as Below • Calculated % Positive control according to the equation below; % Positive control=(Compound value−Negative control)/(Positive value−Negative control value)×100. […]

human h-PGDS, sequence (O60760 whole entry): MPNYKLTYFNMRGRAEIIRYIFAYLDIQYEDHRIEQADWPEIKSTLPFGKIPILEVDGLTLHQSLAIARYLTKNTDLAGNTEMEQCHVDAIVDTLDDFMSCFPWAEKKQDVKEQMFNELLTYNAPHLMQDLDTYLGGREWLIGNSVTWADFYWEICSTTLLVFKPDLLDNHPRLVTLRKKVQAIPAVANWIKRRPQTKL

IC50 | SMILES
262 nM | Cc1cn(NC(=O)c2cnc(-c3cccc(C(F)(F)F)c3)nc2)c2ccc(F)cc12 [Example 227, 2-(3-Trifluoromethyl-phenyl)-pyrimidine-5-carboxylic acid (5-fluoro-3-methyl-indol-1-yl)-amide]
16 nM | Cc1nc(-c2cccc(F)c2)ncc1C(=O)NN(c1ccccc1)c1ccccc1 [Example 190, 2-(3-Fluoro-phenyl)-4-methyl-pyrimidine-5-carboxylic acid N′,N′-diphenyl-hydrazide]
108 nM | O=C(Nn1cc(Br)c(=O)[nH]c1=O)c1cnc(-c2ccccc2)nc1 [Example 72, 2-Phenyl-pyrimidine-5-carboxylic acid (5-bromo-2,4-dioxo-3,4-dihydro-2H-pyrimidin-1-yl)-amide]
832 nM | O=C(NN1CCN(CC(=O)N2CCOCC2)CC1)c1cnc(-c2ccccc2)nc1 [Example 90, 2-Phenyl-pyrimidine-5-carboxylic acid [4-(2-morpholin-4-yl-2-oxo-ethyl)-piperazin-1-yl]-amide]
2 nM | O=C(NN1CCc2ccccc21)c1cnc(-c2ccccc2)nc1 [Example 82, 2-Phenyl-pyrimidine-5-carboxylic acid (2,3-dihydro-indol-1-yl)-amide]
17 nM | Cc1cn(NC(=O)c2cnc(-c3cccc(C(F)F)c3)nc2)c2ccc(F)cc12 [Example 226, 2-(3-Difluoromethyl-phenyl)-pyrimidine-5-carboxylic acid (5-fluoro-3-methyl-indol-1-yl)-amide]
4 nM | CC1Cc2ccccc2N1NC(=O)c1cnc(-c2cccc(F)c2)nc1 (stereo not shown) [Example 100, 2-(3-Fluoro-phenyl)-pyrimidine-5-carboxylic acid (2-methyl-2,3-dihydro-indol-1-yl)-amide]
5 nM | Cc1nc(-c2cccc(F)c2)ncc1C(=O)Nn1cc(-c2nnn[nH]2)c2cc(F)ccc21 [Example 42, 2-(3-Fluoro-phenyl)-4-methyl-pyrimidine-5-carboxylic acid [5-fluoro-3-(1H-tetrazol-5-yl)-indol-1-yl]-amide]
6 nM | Cc1nc(-c2cccc(F)c2)ncc1C(=O)Nn1cc(C)c2cc(F)ccc21 [Example 10, 2-(3-Fluoro-phenyl)-4-methyl-pyrimidine-5-carboxylic acid (5-fluoro-3-methyl-indol-1-yl)-amide]
199 nM | COc1ccccc1-c1ncc(C(=O)NN2CC(C)=NNC2=O)cn1 [Example 120, 2-(2-Methoxy-phenyl)-pyrimidine-5-carboxylic acid (6-methyl-3-oxo-2,5-dihydro-3H-[1,2,4]triazin-4-yl)-amide]
7 nM | Cc1nc(-c2ccccn2)ncc1C(=O)Nn1cc(C)c2cc(F)ccc21 [Example 3, 4-Methyl-2-pyridin-2-yl-pyrimidine-5-carboxylic acid (5-fluoro-3-methyl-indol-1-yl)amide]
57 nM | O=C(NN1CCN(C(=O)C(F)(F)F)CC1)c1cnc(-c2ccccc2)nc1 [Example 88, 2-Phenyl-pyrimidine-5-carboxylic acid [4-(2,2,2-trifluoro-acetyl)-piperazin-1-yl]-amide]
8 nM | Cc1nc(-c2ccccn2)ncc1C(=O)Nn1c(C)cc2cc(F)ccc21 [Example 12, 4-Methyl-2-pyridin-2-yl-pyrimidine-5-carboxylic acid (5-fluoro-2-methyl-indol-1-yl)-amide]
4.5 nM | O=C(Nn1ccc2ccccc21)c1cnc(-c2ccccn2)nc1 [Example 104, 2-Pyridin-2-yl-pyrimidine-5-carboxylic acid indol-1-yl-amide]
4 nM | CC1Cc2ccccc2N1NC(=O)c1cnc(-c2ccccc2)nc1 (stereo not shown) [Example 99, 2-Phenyl-pyrimidine-5-carboxylic acid (2-methyl-2,3-dihydro-indol-1-yl)-amide]
55 nM | O=C(NN1CCOCC1=O)c1cnc(-c2ccccc2)nc1 [Example 47, 2-Phenyl-pyrimidine-5-carboxylic acid (3-oxo-morpholin-4-yl)-amide]
5.5 nM | Cc1nc(-c2ccccc2)ncc1C(=O)NN1CCc2ccccc21 [Example 95, 4-Methyl-2-phenyl-pyrimidine-5-carboxylic acid (2,3-dihydro-indol-1-yl)-amide]
4.5 nM | Cc1nc(-c2ncccn2)ncc1C(=O)Nn1cc(C)c2cc(F)ccc21 [Example 157, 4-Methyl-[2,2′]bipyrimidinyl-5-carboxylic acid (5-fluoro-3-methyl-indol-1-yl)-amide]
21 nM | O=C(NN1CCOc2ccc(F)cc21)c1cnc(-c2ccccc2)nc1 [Example 212, 2-Phenyl-pyrimidine-5-carboxylic acid (6-fluoro-2,3-dihydro-1,4-benzoxazin-4-yl)-amide]
3 nM | O=C(NN1CCc2ccccc21)c1cnc(-c2ccccn2)nc1 [Example 103, 2-Pyridin-2-yl-pyrimidine-5-carboxylic acid (2,3-dihydro-indol-1-yl)-amide]
5 nM | Cc1nc(-c2ccccn2)ncc1C(=O)Nn1ccc2ccccc21 [Example 111, 4-Methyl-2-pyridin-2-yl-pyrimidine-5-carboxylic acid indol-1-ylamide]
12 nM | O=C(NNc1ccccc1F)c1cnc(-c2ccccc2)nc1 [Example 45, 2-Phenyl-pyrimidine-5-carboxylic acid N′-(2-fluoro-phenyl)-hydrazide]
19 nM | Cc1nc(-c2cccc(F)c2)ncc1C(=O)Nn1ccc2cc(F)ccc21 [Example 132, 2-(3-Fluoro-phenyl)-4-methyl-pyrimidine-5-carboxylic acid (5-fluoro-indol-1-yl)-amide]
6 nM | COc1ccc2c(ccn2NC(=O)c2cnc(-c3cccc(F)c3)nc2C)c1 [Example 133, 2-(3-Fluoro-phenyl)-4-methyl-pyrimidine-5-carboxylic acid (5-methoxy-indol-1-yl)-amide]
8 nM | Cc1cn(NC(=O)c2cnc(-c3ccccn3)nc2C(F)(F)F)c2ccc(F)cc12 [Example 209, 2-Pyridin-2-yl-4-trifluoromethyl-pyrimidine-5-carboxylic acid (5-fluoro-3-methyl-indol-1-yl)-amide]
18 nM | O=C(Nn1ccc2cc(F)ccc21)c1cnc(-c2ccccn2)nc1 [Example 124, 2-Pyridin-2-yl-pyrimidine-5-carboxylic acid (5-fluoro-indol-1-yl)-amide]
104 nM | O=C(NN1CCN(C(=O)OCc2ccccc2)CC1=O)c1cnc(-c2ccccc2)nc1 [Example 20, 3-Oxo-4-[(2-phenyl-pyrimidine-5-carbonyl)-amino]-piperazine-1-carboxylic acid benzyl ester]
8 nM | Cc1nc(-c2cccc(F)c2)ncc1C(=O)Nn1cc(C(N)=O)c2cc(F)ccc21 [Example 162, 5-Fluoro-1-{[2-(3-fluoro-phenyl)-4-methyl-pyrimidine-5-carbonyl]-amino}-1H-indole-3-carboxylic acid amide]
